Patent US20240343733A1, “COMPOUNDS FOR TARGETING DEGRADATION OF IRAK4 PROTEINS” (BIOGEN MA INC., priority 2021, published 2024)

What follows are compounds tested against T1, IRAK4 (Homo sapiens, UniProt Q9NWZ3) (assay: IRAK4 Degradation Assay, HiBiT Method). Conditions: 293T cells expressing HiBiT-tagged IRAK4, 6 hours.
T1 construct: 293Tcells expressing HiBiT-tagged IRAK4 were then added into 384-well plates
T1 sequence (Q9NWZ3 1-460): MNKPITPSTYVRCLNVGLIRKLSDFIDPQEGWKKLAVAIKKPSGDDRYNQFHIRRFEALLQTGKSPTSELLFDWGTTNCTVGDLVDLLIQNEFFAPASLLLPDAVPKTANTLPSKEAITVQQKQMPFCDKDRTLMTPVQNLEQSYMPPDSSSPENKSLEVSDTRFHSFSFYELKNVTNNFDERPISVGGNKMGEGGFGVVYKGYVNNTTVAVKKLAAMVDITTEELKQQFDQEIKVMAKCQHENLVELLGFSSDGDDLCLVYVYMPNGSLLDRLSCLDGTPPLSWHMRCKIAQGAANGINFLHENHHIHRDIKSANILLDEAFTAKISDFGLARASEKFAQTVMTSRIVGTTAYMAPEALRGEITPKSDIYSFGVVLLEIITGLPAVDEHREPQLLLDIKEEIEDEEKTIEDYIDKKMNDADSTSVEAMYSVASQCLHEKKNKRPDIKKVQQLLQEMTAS
Assay type: cell-based
Method: Assay 1. IRAK4 Degradation Assay, HiBiT Method
Selected compounds were tested in an IRAK4 degradation assay using the HiBiT Method.
Phenol red-free Dulbecco's modified Eagle medium (DMEM) and fetal bovine serum (FBS) were purchased from Gibco (Grand Island, NY, USA). The Nano-Glo® HiBiT Lytic Assay System was purchased from Promega (Madison, WI, USA). Cell culture flasks and 384-well microplates were acquired from VWR (Radnor, PA, USA). The 293Tcell line was engineered by knocking-in a HiBiT fusion tag into the C-terminal of the IRAK4 gene in 293T cells (Synthego, Redwood City, CA, USA).
IRAK4 degradation was measured via the quantification of luminescent signals using the Nano-Glo® HiBiT Lytic Assay kit. Test compounds were added to 384-well plates in duplicate using an 11-point half-log dilution series, with the highest dose set at […]. 293Tcells expressing HiBiT-tagged IRAK4 were then added into 384-well plates at a cell density of 10,000 cells per well. The plates were kept at 37° C. with 5% CO2 for 6 hours. Cells that were treated only with DMSO served as the negative control; wells that contained only assay media served as the background control. After the 6-hour incubation, Nano-Glo® HiBiT Lytic Assay reagents were added to the cells. Luminescence was acquired using an EnVision™ Multilabel Reader (PerkinElmer, Santa Clara, CA, USA).

**Q.** For `CC(C)Oc1cc2nn([C@H]3CC[C@H](CN4CCC(c5ccc(O[C@@H]6CCC(=O)NC6=O)cc5)CC4)CC3)cc2cc1C(=O)Nc1cccn(C2CC2)c1=O` (single isomer, unassigned) [Example 143], which DC50 is on record?
**A.** 10 to 100 nM

**Q.** With `CC(C)Oc1cc2nc(C3CCC(CN4CCC(c5ccc(NC6CCC(=O)NC6=O)cc5F)CC4)CC3)cn2cc1C(=O)Nc1cccc(C(F)(F)F)n1` (stereo not shown) [Example 1, 2-[4-[[4-[4-[(2,6-dioxo-3-piperidyl)amino]-2-fluoro-phenyl]-1-piperidyl]methyl]cyclohexyl]-7-isopropoxy-N-[6-(trifluoromethyl)-2-pyridyl]imidazo[1,2-a]pyridine-6-carboxamide] as the compound, how does the DC50 read?
**A.** 100 to 500 nM

**Q.** `CC(C)Oc1cc2nc([C@H]3CC[C@H](CN4CCC(c5ccc(NC6CCC(=O)NC6=O)cc5)CC4)CC3)cn2cc1C(=O)Nc1cccc(C(F)(F)F)n1` (stereo partly shown) [Example 2, 2-[4-[[4-[4-[(2,6-dioxo-3-piperidyl)amino]phenyl]-1-piperidyl]methyl]cyclohexyl]-7-isopropoxy-N-[6-(trifluoromethyl)-2-pyridyl]imidazo[1,2-a]pyridine-6-carboxamide] was tested. Which DC50 did it give?
**A.** 10 to 100 nM

**Q.** `CC(C)Oc1cc2nc([C@H]3CC[C@H](CN4CCC(c5cccc6c5n(C)c(=O)n6C5CCC(=O)NC5=O)CC4)CC3)cn2cc1C(=O)Nc1cccc(C(F)(F)F)n1` (stereo partly shown) [Example 3, 2-[4-[[4-[1-(2,6-dioxo-3-piperidyl)-3-methyl-2-oxo-benzimidazol-4-yl]-1-piperidyl]methyl]cyclohexyl]-7-isopropoxy-N-[6-(trifluoromethyl)-2-pyridyl]imidazo[1,2-a]pyridine-6-carboxamide] was tested. Which DC50 did it give?
**A.** 100 to 500 nM

**Q.** How did the DC50 turn out when `CC(C)Oc1cc2nc([C@H]3CC[C@H](CN4CCC(c5ccc(C6CCC(=O)NC6=O)cc5)CC4)CC3)cn2cc1C(=O)Nc1cccc(C(F)(F)F)n1` (stereo partly shown) [Example 4, 2-[4-[[4-[4-(2,6-dioxo-3-piperidyl)phenyl]-1-piperidyl]methyl]cyclohexyl]-7-isopropoxy-N-[6-(trifluoromethyl)-2-pyridyl]imidazo[1,2-a]pyridine-6-carboxamide] was run?
**A.** 500 to 1000 nM

**Q.** `CC(C)Oc1cc2nc([C@H]3CC[C@H](CN4CCC(c5ccc6c(c5)n(C)c(=O)n6C5CCC(=O)NC5=O)CC4)CC3)cn2cc1C(=O)Nc1cccc(C(F)(F)F)n1` (stereo partly shown) [Example 5, 2-[4-[[4-[1-(2,6-dioxo-3-piperidyl)-3-methyl-2-oxo-benzimidazol-5-yl]-1-piperidyl]methyl]cyclohexyl]-7-isopropoxy-N-[6-(trifluoromethyl)-2-pyridyl]imidazo[1,2-a]pyridine-6-carboxamide] was tested. Which DC50 did it give?
**A.** 500 to 1000 nM

**Q.** For `CC(C)Oc1cc2nc([C@H]3CC[C@H](CN4CCC(c5ccc(C6CCC(=O)NC6=O)cc5F)CC4)CC3)cn2cc1C(=O)Nc1cccc(C(F)(F)F)n1` (stereo partly shown) [Example 6, 2-[4-[[4-[4-(2,6-dioxo-3-piperidyl)-2-fluoro-phenyl]-1-piperidyl]methyl]cyclohexyl]-7-isopropoxy-N-[6-(trifluoromethyl)-2-pyridyl]imidazo[1,2-a]pyridine-6-carboxamide], which DC50 is on record?
**A.** 100 to 500 nM

**Q.** `CC(C)Oc1cc2nc([C@H]3CC[C@H](CN(C)C4CCN(c5ccc(NC6CCC(=O)NC6=O)cc5)CC4)CC3)cn2cc1C(=O)Nc1cccc(C(F)(F)F)n1` (stereo partly shown) [Example 7, 2-[4-[[[1-[4-[(2,6-dioxo-3-piperidyl)amino]phenyl]-4-piperidyl]-methyl-amino]methyl]cyclohexyl]-7-isopropoxy-N-[6-(trifluoromethyl)-2-pyridyl]imidazo[1,2-a]pyridine-6-carboxamide] was tested. Which DC50 did it give?
**A.** 100 to 500 nM

**Q.** How did the DC50 turn out when `CC(C)Oc1cc2nc([C@H]3CC[C@H](CN(C)C4CCN(Cc5ccc(NC6CCC(=O)NC6=O)cc5)CC4)CC3)cn2cc1C(=O)Nc1cccc(C(F)(F)F)n1` (stereo partly shown) [Example 8, 2-[4-[[[1-[[4-[(2,6-dioxo-3-piperidyl)amino]phenyl]methyl]-4-piperidyl]-methyl-amino]methyl]cyclohexyl]-7-isopropoxy-N-[6-(trifluoromethyl)-2-pyridyl]imidazo[1,2-a]pyridine-6-carboxamide] was run?
**A.** > 1000 nM

**Q.** With `CC(C)Oc1cc2nc([C@H]3CC[C@H](CN(C)C4CCN(c5cccc(NC6CCC(=O)NC6=O)c5)CC4)CC3)cn2cc1C(=O)Nc1cccc(C(F)(F)F)n1` (stereo partly shown) [Example 9, 2-[4-[[[1-[3-[(2,6-dioxo-3-piperidyl)amino]phenyl]-4-piperidyl]-methyl-amino]methyl]cyclohexyl]-7-isopropoxy-N-[6-(trifluoromethyl)-2-pyridyl]imidazo[1,2-a]pyridine-6-carboxamide] as the compound, how does the DC50 read?
**A.** 500 to 1000 nM

**Q.** With `CC(C)Oc1cc2nc([C@H]3CC[C@H](CN(C)C4CCN(c5ccc6c(c5)n(C)c(=O)n6C5CCC(=O)NC5=O)CC4)CC3)cn2cc1C(=O)Nc1cccc(C(F)(F)F)n1` (stereo partly shown) [Example 10, 2-[4-[[[1-[1-(2,6-dioxo-3-piperidyl)-3-methyl-2-oxo-benzimidazol-5-yl]-4-piperidyl]-methyl-amino]methyl]cyclohexyl]-7-isopropoxy-N-[6-(trifluoromethyl)-2-pyridyl]imidazo[1,2-a]pyridine-6-carboxamide] as the compound, how does the DC50 read?
**A.** 10 to 100 nM

**Q.** For `CC(C)Oc1cc2nc([C@H]3CC[C@H](CN(C)C4CCN(c5cccc(C6CCC(=O)NC6=O)c5)CC4)CC3)cn2cc1C(=O)Nc1cccc(C(F)(F)F)n1` (stereo partly shown) [Example 11, 2-[4-[[[1-[3-(2,6-dioxo-3-piperidyl)phenyl]-4-piperidyl]-methyl-amino]methyl]cyclohexyl]-7-isopropoxy-N-[6-(trifluoromethyl)-2-pyridyl]imidazo[1,2-a]pyridine-6-carboxamide], which DC50 is on record?
**A.** 10 to 100 nM

**Q.** How did the DC50 turn out when `CC(C)Oc1cc2nc([C@H]3CC[C@H](CN4CCC(c5cccc(NC6CCC(=O)NC6=O)c5)CC4)CC3)cn2cc1C(=O)Nc1cccc(C(F)(F)F)n1` (stereo partly shown) [Example 12, 2-[4-[[4-[3-[(2,6-dioxo-3-piperidyl)amino]phenyl]-1-piperidyl]methyl]cyclohexyl]-7-isopropoxy-N-[6-(trifluoromethyl)-2-pyridyl]imidazo[1,2-a]pyridine-6-carboxamide] was run?
**A.** 100 to 500 nM

**Q.** Which DC50 does the source give for `CC(C)Oc1cc2nc([C@H]3CC[C@H](CN(C)C4CCN(c5ccc(C6CCC(=O)NC6=O)cc5)CC4)CC3)cn2cc1C(=O)Nc1cccc(C(F)(F)F)n1` (stereo partly shown) [Example 13, 2-[4-[[[1-[4-(2,6-dioxo-3-piperidyl)phenyl]-4-piperidyl]-methyl-amino]methyl]cyclohexyl]-7-isopropoxy-N-[6-(trifluoromethyl)-2-pyridyl]imidazo[1,2-a]pyridine-6-carboxamide] here?
**A.** 10 to 100 nM

**Q.** Which DC50 does the source give for `CC(C)Oc1cc2nc([C@H]3CC[C@H](CN(C)C4CCN(Cc5cccc(NC6CCC(=O)NC6=O)c5)CC4)CC3)cn2cc1C(=O)Nc1cccc(C(F)(F)F)n1` (stereo partly shown) [Example 14, 2-[4-[[[1-[[3-[(2,6-dioxo-3-piperidyl)amino]phenyl]methyl]-4-piperidyl]-methyl-amino]methyl]cyclohexyl]-7-isopropoxy-N-[6-(trifluoromethyl)-2-pyridyl]imidazo[1,2-a]pyridine-6-carboxamide] here?
**A.** 500 to 1000 nM

**Q.** For `CC(C)Oc1cc2nc(C3CCC(CN4CCC(c5ccc(C6CCC(=O)NC6=O)cc5)CC4)CC3)cn2cc1C(=O)Nc1cccc(C(F)F)n1` (stereo not shown) [Example 15, N-[6-(difluoromethyl)-2-pyridyl]-2-[4-[[4-[4-(2,6-dioxo-3-piperidyl)phenyl]-1-piperidyl]methyl]cyclohexyl]-7-isopropoxy-imidazo[1,2-a]pyridine-6-carboxamide], which DC50 is on record?
**A.** 10 to 100 nM

**Q.** `CC(C)Oc1cc2nc([C@H]3CC[C@H](CN4CCC(c5ccc(NC6CCC(=O)NC6=O)cc5)CC4)CC3)cn2cc1C(=O)Nc1cccc(C(F)F)n1` (stereo partly shown) [Example 16, N-[6-(difluoromethyl)-2-pyridyl]-2-[4-[[4-[4-[(2,6-dioxo-3-piperidyl)amino]phenyl]-1-piperidyl]methyl]cyclohexyl]-7-isopropoxy-imidazo[1,2-a]pyridine-6-carboxamide] was tested. Which DC50 did it give?
**A.** 10 to 100 nM

**Q.** `CC(C)Oc1cc2nc([C@H]3CC[C@H](CN4CCC(c5cccc6c5n(C)c(=O)n6C5CCC(=O)NC5=O)CC4)CC3)cn2cc1C(=O)Nc1cccc(C(F)F)n1` (stereo partly shown) [Example 17, N-[6-(difluoromethyl)-2-pyridyl]-2-[4-[[4-[1-(2,6-dioxo-3-piperidyl)-3-methyl-2-oxo-benzimidazol-4-yl]-1-piperidyl]methyl]cyclohexyl]-7-isopropoxy-imidazo[1,2-a]pyridine-6-carboxamide] was tested. Which DC50 did it give?
**A.** 10 to 100 nM

**Q.** Which DC50 does the source give for `CC(C)Oc1cc2nc([C@H]3CC[C@H](CN4CCC(c5ccc(NC6CCC(=O)NC6=O)cc5F)CC4)CC3)cn2cc1C(=O)Nc1cccc(C(F)F)n1` (stereo partly shown) [Example 18, N-[6-(difluoromethyl)-2-pyridyl]-2-[4-[[4-[4-[(2,6-dioxo-3-piperidyl)amino]-2-fluoro-phenyl]-1-piperidyl]methyl]cyclohexyl]-7-isopropoxy-imidazo[1,2-a]pyridine-6-carboxamide] here?
**A.** 10 to 100 nM
